Test results reported in patent publication US11591323B2, “Muscarinic agonists as non-steroidal and non-opioid analgesics and methods of use thereof” (Barry University, priority 2019, dated 2023).

What was measured:
Design in all cases: host or cells: CHO cells, stably transfected
M5 muscarinic receptor [1] = biological target: T1, M5 muscarinic receptor (Homo sapiens, UniProt P08912); test: accumulation of IPX, M5 CHO cells (M5Gq); assay type: cell-based; conditions: M5 (↑IPX), preferential response, relative to carbachol; Tables 2, 3, 7
T1 sequence (P08912 1-532): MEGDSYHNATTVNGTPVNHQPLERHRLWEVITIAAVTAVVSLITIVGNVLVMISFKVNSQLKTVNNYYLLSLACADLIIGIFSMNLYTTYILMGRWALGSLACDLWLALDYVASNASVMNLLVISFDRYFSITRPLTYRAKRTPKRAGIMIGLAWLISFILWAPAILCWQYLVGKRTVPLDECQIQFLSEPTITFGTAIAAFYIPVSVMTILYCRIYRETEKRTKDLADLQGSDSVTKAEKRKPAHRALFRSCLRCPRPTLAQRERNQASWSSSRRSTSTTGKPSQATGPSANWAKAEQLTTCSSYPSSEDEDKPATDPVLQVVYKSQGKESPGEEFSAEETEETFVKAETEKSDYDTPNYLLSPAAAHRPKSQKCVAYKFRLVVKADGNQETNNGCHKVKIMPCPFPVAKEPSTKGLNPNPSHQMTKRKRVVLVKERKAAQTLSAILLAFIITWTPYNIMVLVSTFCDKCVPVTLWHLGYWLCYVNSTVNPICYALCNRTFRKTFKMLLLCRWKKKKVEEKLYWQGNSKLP

M5 muscarinic receptor [2] = biological target: T1, M5 muscarinic receptor; test: [3H]NMS competition binding, M5 CHO membranes; conditions: competition with 1 nM [3H]NMS; read-out: Inhibition constants (Ki) as negative logarithms, M5 (converted)
M1 muscarinic receptor [3] = biological target: T2, M1 muscarinic receptor (Homo sapiens, UniProt P11229); test: [3H]NMS competition binding, M1 CHO membranes; conditions: competition with 1 nM [3H]NMS; read-out: Inhibition constants (Ki) as negative logarithms, M1 (converted)
T2 sequence (P11229 1-460): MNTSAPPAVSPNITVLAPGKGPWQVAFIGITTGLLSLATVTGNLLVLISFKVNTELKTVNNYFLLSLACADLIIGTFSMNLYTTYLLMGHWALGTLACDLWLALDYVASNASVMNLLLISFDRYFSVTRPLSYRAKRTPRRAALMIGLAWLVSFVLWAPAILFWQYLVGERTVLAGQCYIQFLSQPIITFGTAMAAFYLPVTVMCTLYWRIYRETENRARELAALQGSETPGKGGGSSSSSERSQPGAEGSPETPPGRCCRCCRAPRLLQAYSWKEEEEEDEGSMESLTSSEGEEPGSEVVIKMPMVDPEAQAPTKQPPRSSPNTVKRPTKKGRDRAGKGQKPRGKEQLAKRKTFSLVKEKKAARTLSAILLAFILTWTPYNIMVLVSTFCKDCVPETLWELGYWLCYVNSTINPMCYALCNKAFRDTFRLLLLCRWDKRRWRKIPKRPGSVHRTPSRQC

M3 muscarinic receptor [4] = biological target: T3, M3 muscarinic receptor (Homo sapiens, UniProt P20309); test: [3H]NMS competition binding, M3 CHO membranes; conditions: competition with 1 nM [3H]NMS; read-out: Inhibition constants (Ki) as negative logarithms, M3 (converted)
M1 muscarinic receptor [5] = biological target: T2, M1 muscarinic receptor; test: accumulation of inositol phosphates IPX, M1 CHO cells (M1Gq); assay type: cell-based; conditions: M1 (↑IPX), preferential response, relative to carbachol; Tables 2, 3, 7
M3 muscarinic receptor [6] = biological target: T3, M3 muscarinic receptor; test: accumulation of IPX, M3 CHO cells (M3Gq); assay type: cell-based; conditions: M3 (↑IPX), preferential response, relative to carbachol; Tables 2, 3, 7
M2 muscarinic receptor [7] = biological target: T4, M2 muscarinic receptor (Homo sapiens, UniProt P08172); test: inhibition of forskolin-stimulated cAMP, M2 CHO cells (M2Gi); assay type: cell-based; conditions: M2 (↓cAMP), preferential response, relative to carbachol; Tables 2, 3, 7
T4 sequence (P08172 1-466): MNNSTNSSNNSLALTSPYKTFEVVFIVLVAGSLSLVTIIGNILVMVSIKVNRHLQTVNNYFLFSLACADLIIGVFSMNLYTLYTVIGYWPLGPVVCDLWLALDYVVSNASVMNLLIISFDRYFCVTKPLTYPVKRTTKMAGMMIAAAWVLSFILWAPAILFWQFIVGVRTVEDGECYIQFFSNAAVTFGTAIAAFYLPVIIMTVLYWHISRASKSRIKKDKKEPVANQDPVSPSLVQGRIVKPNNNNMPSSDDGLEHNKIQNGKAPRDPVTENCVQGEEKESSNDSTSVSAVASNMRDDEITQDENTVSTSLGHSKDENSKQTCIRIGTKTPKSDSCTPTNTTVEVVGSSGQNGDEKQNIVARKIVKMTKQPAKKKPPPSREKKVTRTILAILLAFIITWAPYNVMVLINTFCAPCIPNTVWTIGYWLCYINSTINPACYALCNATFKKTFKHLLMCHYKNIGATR

M2 muscarinic receptor [8] = biological target: T4, M2 muscarinic receptor; test: [3H]NMS competition binding, M2 CHO membranes; conditions: competition with 1 nM [3H]NMS; read-out: Inhibition constants (Ki) as negative logarithms, M2 (converted)
M4 muscarinic receptor [9] = biological target: T5, M4 muscarinic receptor (Homo sapiens, UniProt P08173); test: inhibition of forskolin-stimulated cAMP, M4 CHO cells (M4Gi); assay type: cell-based; conditions: M4 (↓cAMP), preferential response, relative to carbachol; Tables 2, 3, 7
T5 sequence (P08173 1-479): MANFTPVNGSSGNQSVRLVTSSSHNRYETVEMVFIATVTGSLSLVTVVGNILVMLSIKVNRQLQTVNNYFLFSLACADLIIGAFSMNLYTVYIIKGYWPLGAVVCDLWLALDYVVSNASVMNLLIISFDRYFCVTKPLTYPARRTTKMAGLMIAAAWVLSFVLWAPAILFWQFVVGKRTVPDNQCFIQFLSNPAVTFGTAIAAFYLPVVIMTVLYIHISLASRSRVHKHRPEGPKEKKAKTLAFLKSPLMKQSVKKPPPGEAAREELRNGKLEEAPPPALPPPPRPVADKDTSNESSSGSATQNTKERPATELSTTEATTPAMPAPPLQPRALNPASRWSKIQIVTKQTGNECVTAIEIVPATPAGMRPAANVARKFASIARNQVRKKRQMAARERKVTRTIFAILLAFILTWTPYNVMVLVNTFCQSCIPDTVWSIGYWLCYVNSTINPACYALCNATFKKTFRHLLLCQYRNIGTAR

M4 muscarinic receptor [10] = biological target: T5, M4 muscarinic receptor; test: [3H]NMS competition binding, M4 CHO membranes; conditions: competition with 1 nM [3H]NMS; read-out: Inhibition constants (Ki) as negative logarithms, M4 (converted)

T3 sequence (P20309 whole entry): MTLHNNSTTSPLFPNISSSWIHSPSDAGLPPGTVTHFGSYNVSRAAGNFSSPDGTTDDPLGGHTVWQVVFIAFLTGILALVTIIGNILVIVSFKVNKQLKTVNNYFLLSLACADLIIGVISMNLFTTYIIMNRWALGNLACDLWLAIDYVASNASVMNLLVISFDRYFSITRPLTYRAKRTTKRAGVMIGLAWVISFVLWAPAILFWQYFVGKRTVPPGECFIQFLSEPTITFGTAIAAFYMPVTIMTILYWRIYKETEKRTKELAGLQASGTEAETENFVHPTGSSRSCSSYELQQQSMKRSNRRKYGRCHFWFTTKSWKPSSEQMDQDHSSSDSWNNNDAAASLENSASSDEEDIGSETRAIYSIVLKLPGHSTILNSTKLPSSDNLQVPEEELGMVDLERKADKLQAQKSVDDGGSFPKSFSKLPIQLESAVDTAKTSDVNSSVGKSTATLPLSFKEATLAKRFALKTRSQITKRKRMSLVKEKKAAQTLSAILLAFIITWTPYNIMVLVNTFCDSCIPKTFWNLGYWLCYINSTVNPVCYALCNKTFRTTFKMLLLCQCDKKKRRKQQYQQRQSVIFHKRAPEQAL

RAi (M5 muscarinic receptor [1]): 0 | Ki (M5 muscarinic receptor [2]): 31.6 µM | Ki (M1 muscarinic receptor [3]): 31.6 µM | Ki (M3 muscarinic receptor [4]): 50.1 µM | RAi (M1 muscarinic receptor [5]): 0 | RAi (M3 muscarinic receptor [6]): 0 | RAi (M2 muscarinic receptor [7]): 0 | Ki (M2 muscarinic receptor [8]): 12.6 µM | RAi (M4 muscarinic receptor [9]): 0 | Ki (M4 muscarinic receptor [10]): 31.6 µM
Compound: Cc1csc(CN2CC=CCC2)c1.Cl [Compound 6E, 1-[(4-methylthiophen-2-yl)methyl]-1,2,3,6-tetrahydropyridin-1-ium chloride]
